{"source": "patent US8937044B2", "about": "“Process for the synchronization of ovulation for timed breeding without heat detection” (priority 2003, dated 2015)", "format_in_all_cases": "in vivo, swine", "key": {"postpartum sows [1]": {"tested_on": "postpartum sows", "assay": "Pregnancy rate after deslorelin treatment in sows, summary of Tables 2-5", "settings": "Table 6 summary", "procedure": "Approximately 170 postpartum sows were randomly divided into two equal groups comprised of controls and treated. Following weaning, the controls were detected for estrus and bred following the normal standard operating procedures for the farms on which they resided. The treated sows received a 50 mcg dose of deslorelin in SAIB at 96 hours post-weaning and were bred with a single insemination 28+/−2 hours later with no regard to estrus detection. The sows were examined for pregnancy by ultrasound at 21 days and slaughtered around 28 days post breeding. The entire reproductive tract was removed and corpora lutea and embryos were counted. Postpartum sows were randomly distributed into three different groups comprised of Controls, Treatment 1, and Treatment 2, with the exception of Site 3, which was divided into two groups, Control and Treatment 2. Control sows were detected for estrus following weaning, and bred following the normal standard operating procedures for the farms on which they resided. Treatment 1 sows were detected for estrus following weaning, and received a 50 mcg dose of deslorelin in the morning when standing and were bred by AI 4 hours later and again at 24+/−2 hours later. Treatment 2 sows received a 50 mcg dose of deslorelin in SAIB at 96 or 120 hours post-weaning and were bred with a single insemination 28+/−2 hours later with, no regard to estrus detection."}, "postpartum sows [2]": {"tested_on": "postpartum sows", "assay": "Timed deslorelin injection 96 h post-weaning and single timed insemination without estrus detection (Example 3)", "procedure": "Approximately 170 postpartum sows were randomly divided into two equal groups comprised of controls and treated. Following weaning, the controls were detected for estrus and bred following the normal standard operating procedures for the farms on which they resided. The treated sows received a 50 mcg dose of deslorelin in SAIB at 96 hours post-weaning and were bred with a single insemination 28+/−2 hours later with no regard to estrus detection. The sows were examined for pregnancy by ultrasound at 21 days and slaughtered around 28 days post breeding. The entire reproductive tract was removed and corpora lutea and embryos were counted."}, "mature postpartum sows": {"tested_on": "mature postpartum sows", "assay": "Deslorelin at first detected estrus in postpartum sows, AI breeding (Example 2)", "procedure": "Sows were assigned randomly in blocks of two to either control or to be injected intravulvar with 50 mcg of deslorelin in SAIB at the time of estrus detection for sows first detected in estrus in the a.m. and 12 hours later for those first detected in estrus in the p.m. Treated animals were bred AI upon detected estrus and again 24 hours later if still in estrus. Controls received a saline injection on first detected estrus behavior estrus detection and were bred according to the farm's normal procedures."}, "postpartum sows [3]": {"tested_on": "postpartum sows", "assay": "Litter size after deslorelin treatment in sows, three farm sites (Example 4)", "settings": "Tables 3-5, three sites, regardless of estrus detection", "description": "Postpartum sows were randomly distributed into three different groups comprised of Controls, Treatment 1, and Treatment 2, with the exception of Site 3, which was divided into two groups, Control and Treatment 2. Control sows were detected for estrus following weaning, and bred following the normal standard operating procedures for the farms on which they resided. Treatment 1 sows were detected for estrus following weaning, and received a 50 mcg dose of deslorelin in the morning when standing and were bred by AI 4 hours later and again at 24+/−2 hours later. Treatment 2 sows received a 50 mcg dose of deslorelin in SAIB at 96 or 120 hours post-weaning and were bred with a single insemination 28+/−2 hours later with, no regard to estrus detection."}, "LH": {"tested_on": "LH", "assay": "LH response (RIA) in ovariectomized estrogen primed gilt model, dose response study", "settings": "single injection of 50 mcg in SAIB", "procedure": "A dose response study was performed using deslorelin in SAIB in an ovariectomized estrogen primed gilt model (Barb, et al. (1999) Proceed. Int'l. Symp. Control. Rel. Bioact. Mater., 26)."}}, "data": [{"smiles": "CCNC(=O)[C@@H]1CCCN1C(=O)[C@H](CCCN=C(N)N)NC(=O)[C@H](CC(C)C)NC(=O)[C@@H](Cc1c[nH]c2ccccc12)NC(=O)[C@H](Cc1ccc(O)cc1)NC(=O)[C@H](CO)NC(=O)[C@H](Cc1c[nH]c2ccccc12)NC(=O)[C@H](Cc1cnc[nH]1)NC(=O)[C@@H]1CCC(=O)N1", "note": "[Deslorelin, deslorelin]", "values": [{"measurement": "pregnancy rates (in words)", "setting": "postpartum sows [1]", "result": "normal pregnancy rates were obtained"}, {"measurement": "Embryo Survival", "setting": "postpartum sows [2]; 50 mcg in SAIB 96 h post-weaning, single insemination 28+/-2 h later", "result": 64, "unit": "%"}, {"measurement": "Sows Pregnant", "setting": "postpartum sows [2]; 50 mcg in SAIB 96 h post-weaning, single insemination 28+/-2 h later, 84 sows in group", "result": 60}, {"measurement": "Pregnancy Rate", "setting": "postpartum sows [2]; 50 mcg in SAIB 96 h post-weaning, single insemination 28+/-2 h later, no estrus detection", "result": 71, "unit": "%"}, {"measurement": "pregnancy rates (in words)", "setting": "postpartum sows [2]; single timed injection in SAIB post-weaning, single timed insemination, no estrus detection", "result": "normal pregnancy rates were attained"}, {"measurement": "Pregnancy Rate", "setting": "mature postpartum sows; 50 μg deslorelin acetate (1 ml) intravulvar at first estrus detection, AI, again next day if in estrus, n = 75", "result": 91, "unit": "%"}, {"measurement": "pregnancy rates, Control versus Treated (in words)", "setting": "mature postpartum sows; 50 mcg in SAIB intravulvar at estrus detection", "result": "no significant difference"}, {"measurement": "litter sizes (in words)", "setting": "postpartum sows [3]", "result": "normal litter sizes"}, {"measurement": "time at which LH returned to base level", "setting": "LH", "result": "≤ 18", "unit": "h"}, {"measurement": "LH peak relative to normal value", "setting": "LH; normal value from Hansel et al. 1973", "result": "about twice normal value"}]}]}
